Here are results for four compounds from PMC5762908 (Scientific Reports, 2018).

Read-outs that look alike come from different tables or passages of the source.

For experiment [1], the system named is PBMC (human peripheral blood mononuclear cells). The experiment in a line: Cytotoxic activity, alamar blue assay, PBMC non-cancer cells. The class given is cell-based. The following applies: 72 h incubation.
For experiment [2], the system named is WT SV40 MEF (wild-type immortalized mouse embryonic fibroblast). The experiment can be described thus: Cytotoxic activity, alamar blue assay, WT SV40 MEF. The class given is cell-based. Conditions: 72 h incubation.
For experiment [3], the system named is MRC-5 (human lung fibroblast). The experiment can be described thus: Cytotoxic activity, alamar blue assay, MRC-5 non-cancer cells. The format is cell-based.
Experiment [4] concerns BAD KO SV40 MEF (BAD gene knockout immortalized mouse embryonic fibroblast). The experiment in a line: Cytotoxic activity, alamar blue assay, BAD KO SV40 MEF. Conditions: 72 h incubation. The class given is cell-based.
A further experiment relates to advanced CRC. Conditions: cited from earlier work.
A further experiment has as its system calf thymus DNA (ctDNA). The experiment in a line: DNA intercalation assay, ethidium bromide displacement. The class given is binding. The following applies: complex 5, 10 and 20 µM; doxorubicin 10 µM; data not shown. As to the method: DNA intercalation was assessed by examining the ability of the complex to displace ethidium bromide from ctDNA (Sigma-Aldrich Co.)[32]. The DNA intercalation assay was conducted in 96-well plate (100 µL) and contained 15 µg/mL ctDNA, 1.5 µM ethidium bromide and 5, 10 and 20 µM of complex in saline solution. The vehicle (0.1% DMSO) used for diluting the compound tested was used as the negative control. Doxorubicin (10 µM) was used as the positive control. Fluorescence was measured using excitation and emission wavelengths of 320 nm and 600 nm, respectively using the spectraMax Microplate Reader (Molecular Devices).

The mark [5] stands for this setting: Homo sapiens, MRC5, 72 h incubation.

On to `O=c1[nH]cc(F)c(=O)[nH]1` [5-FU, 5-fluorouracil], for which the IC50 is 78 µM in experiment [1] (Homo sapiens, PBMC); 1.7 µM in experiment [2] (Mus musculus, Fibroblast); 57.9 µM in experiment [3] (setting [5]); 7.3 µM in experiment [4] (Mus musculus, Fibroblast). Besides, the Response rates in the experiment on advanced CRC (5-FU as a monotherapy) is 10–15%; in the experiment with advanced CRC (5-FU combined with irinotecan and oxaliplatin), 40–50%.
For the compound `COc1cccc2c1C(=O)c1c(O)c3c(c(O)c1C2=O)C[C@@](O)(C(=O)CO)C[C@@H]3O[C@H]1C[C@H](N)[C@H](O)[C@H](C)O1` [DOX, Doxorubicin], the IC50 in experiment [1] (Homo sapiens, PBMC) was 5.1 µM; in experiment [2] (Mus musculus, Fibroblast), 0.03 µM; in experiment [3] (setting [5]), 1.6 µM; in experiment [4] (Mus musculus, Fibroblast) it was 0.4 µM. Further, the “Ethidium bromide fluorescence (displacement from ctDNA)” value in the experiment on calf thymus DNA (ctDNA) was “reduced the fluorescence intensity of ethidium bromide”.
On to `O=C1[O][Pt]2([NH][C@@H]3CCCC[C@H]3[NH]2)[O]C1=O` [OXA, oxaliplatin], for which the IC50 is 12.4 µM in experiment [1] and 1.4 µM in experiment [3] (72 h incubation).
On to [Ru(5-FU)(PPh3)2(bipy)]PF6 [RU/5-FU], for which the IC50 was determined as 5.7 µM in experiment [1], 1.9 µM in experiment [2], 9.5 µM in experiment [3] (72 h incubation) and 1.8 µM in experiment [4]. Further, the “Ethidium bromide fluorescence (displacement from ctDNA)” value with calf thymus DNA (ctDNA) is on record as “did not decrease the ethidium bromide fluorescence”.
